How the values were obtained:
Type in all cases: in vivo
[1] = tested on: Yellow Fever Mosquito (Aedes aegypti, AEDSAE); settings: about 1 day-old larvae, 96-well plate from 4000 ppm DMSO master, 3 days at room temperature
Procedure: Certain molecules disclosed in this document were tested against YFM using procedures described in the following paragraph. In the reporting of the results, the “GPA & YFM Rating Table” was used (See Table Section).
Master plates containing 400 μg of a molecule dissolved in 100 μL of dimethyl sulfoxide (DMSO) (equivalent to a 4000 ppm solution) are used. A master plate of assembled molecules contains 15 μL per well. To this plate, 135 μL of a 90:10 water/acetone mixture is added to each well. A robot is programmed to dispense 15 μL aspirations from the master plate into an empty 96-well shallow plate (“daughter” plate). There are 6 reps (“daughter” plates) created per master. The created “daughter” plates are then immediately infested with YFM larvae.
The day before plates are to be treated, mosquito eggs are placed in Millipore water containing liver powder to begin hatching (4 g. into 400 mL). After the “daughter” plates are created using the robot, they are infested with 220 μL of the liver powder/larval mosquito mixture (about 1 day-old larvae). After plates are infested with mosquito larvae, a non-evaporative lid is used to cover the plate to reduce drying. Plates are held at room temperature for 3 days prior to grading. After 3 days, each well is observed and scored based on mortality. The results are indicated in the table entitled “Table ABC: Biological Results” (See Table Section).

[2] = tested on: Cabbage Looper (Trichoplusia ni, TRIPNI); assay: Bioassay on Cabbage Looper (CL), 128-well diet tray assay; settings: 168 h, 50 μg/cm^2 on artificial diet, second instar larvae, 25° C., five to seven days, average of eight wells, read-out: CL % Control (or Mortality) rating
Procedure: (§1) Certain molecules disclosed in this document were tested against BAW and CL using procedures described in the following examples. In the reporting of the results, the “BAW & CL Rating Table” was used (See Table Section).
Bioassays on CL were conducted using a 128-well diet tray assay. one to five second instar CL larvae were placed in each well (3 mL) of the diet tray that had been previously filled with 1 mL of artificial diet to which 50 μg/cm^2 of the test molecule (dissolved in 50 μL of 90:10 acetone-water mixture) had been applied (to each of eight wells) and then allowed to dry. Trays were covered with a clear self-adhesive cover, vented to allow gas exchange, and held at 25° C., 14:10 light-dark for five to seven days. Percent mortality was recorded for the larvae in each well; activity in the eight wells was then averaged. The results are indicated in the table entitled “Table ABC: Biological Results” (See Table Section).

[3] = tested on: Beet Armyworm (Spodoptera exigua, LAPHEG); assay: Bioassay on Beet Armyworm (BAW), 128-well diet tray assay; settings: 168 h, 50 μg/cm^2 on artificial diet, second instar larvae, 25° C., five to seven days, average of eight wells, read-out: BAW % Control (or Mortality) rating
Procedure: as §1
Bioassays on BAW were conducted using a 128-well diet tray assay. One to five second instar BAW larvae were placed in each well (3 mL) of the diet tray that had been previously filled with approximately 1.5 mL of artificial diet to which 50 μg/cm^2 of the test molecule (dissolved in 50 μL of 90:10 acetone-water mixture) had been applied (to each of eight wells) and then allowed to dry. Trays were covered with a clear self-adhesive cover, vented to allow gas exchange, and held at 25° C., 14:10 light-dark for five to seven days. Percent mortality was recorded for the larvae in each well; activity in the eight wells was then averaged. The results are indicated in the table entitled “Table ABC: Biological Results” (See Table Section).

SMILES | YFM % Control (or Mortality) rating [1] | mortality at 50 µg/cm2 [2] [%] | mortality at 50 µg/cm2 [3] [%]
O=C1CCC(NC(=O)c2cc(NC(=O)[C@H]3[C@H](c4cc(Cl)cc(Cl)c4)C3(Cl)Cl)ccc2Cl)CC1 (relative stereo) [Molecule F65, trans-2-Chloro-5-(2,2-dichloro-3-(3,5-dichlorophenyl)cyclopropane-1-carboxamido)-N-(4-oxocyclohexyl)benzamide] | A (80-100) | 50 to 100 | 0 to 50
C[C@@]1(c2cc(Cl)cc(Cl)c2)[C@H](C(=O)Nc2ccc(Cl)c(C(=O)NC3CC(F)(F)C3)c2)C1(Cl)Cl (relative stereo) [Molecule F62, cis-2-Chloro-5-(2,2-dichloro-3-(3,5-dichlorophenyl)-3-methylcyclopropane-1-carboxamido)-N-(3,3-difluorocyclobutyl)benzamide] | D (No activity noticed in this bioassay) | 0 to 50 | 0 to 50
O=C(NC1CC(F)(F)C1)c1cc(NC(=O)[C@H]2[C@H](c3cc(F)cc(Cl)c3)C2(Cl)Cl)ccc1Cl (relative stereo) [PF5, trans-2-Chloro-5-(2,2-dichloro-3-(3-chloro-5-fluorophenyl)cyclopropane-1-carboxamido)-N-(3,3-difluorocyclobutyl)benzamide] | B (More than 0-Less than 80) | 50 to 100 | 50 to 100
O=C(NC1CCNC1=O)c1cc(NC(=O)C2C(c3cc(Cl)cc(Cl)c3)C2(Cl)Cl)ccc1Cl (stereo not drawn) [PF29, trans-2-Chloro-5-(2,2-dichloro-3-(3,5-dichlorophenyl)cyclopropane-1-carbox-amido)-N-(2-oxopyrrolidin-3-yl)benzamide] | B (More than 0-Less than 80) | 50 to 100 | 50 to 100
N#CC1(NC(=O)c2cc(NC(=O)[C@H]3[C@H](c4cccc(C(F)F)c4)C3(Cl)Cl)ccc2Cl)CC1 (relative stereo) [Molecule F91, trans-2-Chloro-N-(1-cyanocyclopropyl)-5-(2,2-dichloro-3-(3-(difluoromethyl)-phenyl)cyclopropane-1-carboxamido)benzamide] | A (80-100) | 50 to 100 | 50 to 100
O=C(NC1CC(F)(F)C1)c1cc(NC(=O)[C@H]2[C@H](c3cc(Cl)cc(Cl)c3)C2(Br)Br)ccc1Cl (relative stereo) [PF31, trans-2-Chloro-5-(2,2-dibromo-3-(3,5-dichlorophenyl)cyclopropane-1-carboxamido)-N-(3,3-difluorocyclobutyl)benzamide] | B (More than 0-Less than 80) | 50 to 100 | 50 to 100
O=C(N[C@@H]1CON(CC(F)(F)F)C1=O)c1cc(NC(=O)C2C(c3cc(Cl)c(Cl)c(Cl)c3)C2(Cl)Cl)ccc1Cl (stereo in doubt) [Molecule F80, trans-2-Chloro-5-(2,2-dichloro-3-(3,4,5-trichlorophenyl)cyclopropane-1-carboxamido)-N—((R)-3-oxo-2-(2,2,2-trifluoroethyl)isoxazolidin-4-yl)benzamide] | A (80-100) | 50 to 100 | 50 to 100
O=C(NC1CC(F)(F)C1)c1cc(NC(=O)[C@H]2[C@H](c3cc(Cl)cc(Cl)c3)C2(Cl)Cl)ccc1Cl [Molecule F73, 2-Chloro-5-((1R,3R)-2,2-dichloro-3-(3,5-dichlorophenyl)cyclopropanecarbox-amido)-N-(3,3-difluorocyclobutyl)benzamide] | A (80-100) | 50 to 100 | 50 to 100
N#Cc1cc(Cl)cc(C2C(C(=O)Nc3ccc(Cl)c(C(=O)NC4CC(F)(F)C4)c3)C2(Cl)Cl)c1 (stereo not drawn) [Molecule F77, trans-2-Chloro-5-(2,2-dichloro-3-(3-chloro-5-cyanophenyl)cyclopropane-1-carboxamidocarboxamido)-N-(3,3-difluorocyclobutyl)benzamide] | A (80-100) | 50 to 100 | 50 to 100
CCNC(=O)C1(NC(=O)c2cc(NC(=O)C3C(c4cc(Cl)cc(Cl)c4)C3(Cl)Cl)ccc2Cl)CC1 (stereo not drawn) [PF43, trans-2-Chloro-5-(2,2-dichloro-3-(3,5-dichlorophenyl)cyclopropane-1-carbox-amido)-N-(1-(ethylcarbamoyl)cyclopropyl)benzamide] | A (80-100) | 50 to 100 | 50 to 100
O=C(NC1CCSC1=O)c1cc(NC(=O)C2C(c3cc(Cl)cc(Cl)c3)C2(Cl)Cl)ccc1Cl (stereo not drawn) [PF36, trans-2-Chloro-5-(2,2-dichloro-3-(3,5-dichlorophenyl)cyclopropane-1-carbox-amido)-N-(2-oxotetrahydrothiophen-3-yl)benzamide] | A (80-100) | 50 to 100 | 50 to 100
O=C(N[C@@H]1CON(CC(F)(F)F)C1=O)c1cc(NC(=O)C2C(c3cc(Cl)cc(Cl)c3)C2(Cl)Cl)ccc1Cl (stereo partly drawn) [PF28, trans-2-Chloro-5-(2,2-dichloro-3-(3,5-dichlorophenyl)cyclopropane-1-carbox-amido)-N—((R)-3-oxo-2-(2,2,2-trifluoroethyl)isoxazolidin-4-yl)benzamide] | A (80-100) | 50 to 100 | 50 to 100
N#CC1CCC(NC(=O)c2cc(NC(=O)[C@H]3[C@H](c4cc(Cl)c(Cl)c(Cl)c4)C3(Cl)Cl)ccc2Cl)C1 (relative stereo) [Molecule F39, trans-2-Chloro-N-(3-cyanocyclopentyl)-5-(2,2-dichloro-3-(3,4,5-trichlorophenyl)cyclopropanecarboxamido)benzamide] | A (80-100) | 50 to 100 | 50 to 100
CN(C(=O)c1cc(NC(=O)[C@H]2[C@H](c3ccc(Cl)c(Cl)c3)C2(Cl)Cl)ccc1Cl)C1CC(F)(F)C1 (relative stereo) [Molecule F33, trans-2-Chloro-5-(2,2-dichloro-3-(3,4-dichlorophenyl)cyclopropanecarboxamido)-N-(3,3-difluorocyclobutyl)-N-methylbenzamide] | A (80-100) | 50 to 100 | 50 to 100
N#CC1(NC(=O)c2cc(NC(=O)[C@H]3[C@H](c4cc(Cl)cc(Cl)c4)C3(Cl)Cl)ccc2Cl)CC1 [Molecule F75, 2-Chloro-N-(1-cyanocyclopropyl)-5-((1R,3R)-2,2-dichloro-3-(3,5-dichloro-phenyl)cyclopropane-1-carboxamido)benzamide] | A (80-100) |  | 
O=C(NC1CC(F)(F)C1)c1cc(NC(=O)[C@H]2[C@H](c3cc(Cl)c(F)c(Cl)c3)C2(Cl)Cl)ccc1Cl (relative stereo) [Molecule F30, trans-2-Chloro-5-(2,2-dichloro-3-(3,5-dichloro-4-fluorophenyl)cyclopropanecarboxamido)-N-(3,3-difluorocyclobutyl)benzamide] |  | 50 to 100 | 50 to 100
O=C(NC1CC(F)(F)C1)c1cc(NC(=O)[C@H]2[C@H](c3cc(Cl)cc(C(F)(F)F)c3)C2(Cl)Cl)ccc1Cl (relative stereo) [Molecule F26, trans-2-Chloro-5-(2,2-dichloro-3-(3-chloro-5-(trifluoromethyl)phenyl)cyclopropanecarboxamido)-N-(3,3-difluorocyclobutyl)benzamide] |  | 50 to 100 | 50 to 100
